Experimental data taken from patent US20260240832A1, “USE OF NITROXOLINE COMPOUND IN ENHANCING EFFECT OF ANTIBACTERIAL AGENT” (Jiangsu Yahong Meditech Co., Ltd., priority 2022, published 2026).
Read-outs that look alike come from different tables or passages of the source. Blank lines part the entries; values can stand above or below the compound they belong to.

Assays:
Format in all cases: cell-based
[1] = system: carbapenem-resistant Acinetobacter baumannii; experiment: Chessboard microbroth dilution MIC/FIC, compound 1 in combination with meropenem; details: for MIC: Acinetobacter baumannii; for Compound 1 MIC in combination: with meropenem; for Meropenem MIC in combination: with compound 1
Text: This experiment is designed to determine the minimum inhibitory concentration (MIC) of compound 1 in combination with meropenem against Acinetobacter baumannii (a strain resistant to carbapenem antibiotics) and to calculate the fractional inhibitory concentration (FIC) index.
Test bacteria: A total of 9 strains of Acinetobacter baumannii, all of which are resistant to carbapenem antibiotics (e.g., meropenem), are clinically isolated strains, and are provided by Shanghai Junji Medical Laboratory Co., Ltd.
(§1) According to the recommendation of the Clinical and Laboratory Standards Institute (CLSI), the microbroth dilution method designed by the chessboard method was used to determine the minimum inhibitory concentration (MIC) of compound 1 in combination with meropenem against the above strains, and the fractional inhibitory concentration (FIC) index was calculated.
(§2) Compound 1 was dissolved in dimethyl sulfoxide to obtain a stock solution I with a concentration of 1280 mg/L. The stock solution I was diluted to 512 mg/L with sterile water to obtain a gradient dilution first tube solution I. The gradient dilution first tube solution I was subjected to 1:1 gradient dilution with sterile water to obtain a working solution I with a gradient range of 512 to 0.25 mg/L.
(§3) Meropenem was dissolved in sterile water to obtain a stock solution II with a concentration of 5120 mg/L. The stock solution II was diluted to 1024 mg/L with sterile water to obtain a gradient dilution first tube solution II. The gradient dilution first tube solution II was subjected to 1:1 gradient dilution with sterile water to obtain a working solution II with a gradient range of 1024 to 0.5 mg/L.
50 μL of solution was taken from each tube of working solution I, and added to the drug sensitivity plate row by row starting from the second well of each row (in each row, the concentration of compound 1 increased from the second well to the last well). 50 μL of solution was taken from each tube of working solution II, and added to the drug sensitivity plate column by column starting from the second well of each column (in each column, the concentration of meropenem increased from the second well to the last well). As a result, a chessboard cross with different concentrations of the two drugs was formed (wherein, there was neither compound 1 nor meropenem in the intersection well of the first row and the first column; the wells of the first row except the intersection well only contained compound 1, and the wells of the first column except the intersection well only contained meropenem; except for the above wells, the remaining wells contained […] and meropenem).
According to the above process, the volume of the drug solution in each well containing only one drug of the drug sensitivity plate was 50 μL, thus 50 μL of sterile water was added to each well. 100 μL of sterile water was added to the intersection well of the first row and the first column. After that, 100 μL of bacterial solution (formulated according to step (3)) was added to all the wells of the drug sensitivity plate and mixed.
(§4) (2) The culture medium of the bacterial solution: Cation-Adjusted Mueller-Hinton Broth (CAMHB), a product of BBL, USA, batch number 9015952.
(§5) (3) Formulation method of bacterial solution: According to the direct colony suspension method, the test bacteria cultured overnight were prepared into a 0.5 McFarland turbidity tube using physiological saline. Then, the resulting solution was dilute 100 times with the above culture medium. 100 μL of the resulting bacterial solution was mixed well with the solution (100 μL) in each well of the drug sensitivity plate, and the final inoculation amount was 10^5 CFU/mL.
(§6) (4) Culture conditions: Culturing at 35±2° C. for 20 hours in air.
(1) The experimental results were determined according to the standard of CLSI 2019 M100 29th edition. […]

[2] = system: drug-resistant Escherichia coli II (drug-resistant Escherichia coli 1864); experiment: Chessboard microbroth dilution MIC/FIC, compound A in combination with meropenem; details: strain 1864
Text: This experiment is designed to determine the minimum inhibitory concentration (MIC) of compound A in combination with meropenem against drug-resistant Escherichia coli I (a strain resistant to carbapenem antibiotics) and drug-resistant Escherichia coli II (a strain resistant to fluoroquinolone antibiotics, non-fluoroquinolone antibiotics, aminoglycoside antibiotics, glycopeptide antibiotics and carbapenem antibiotics), and to calculate the fractional inhibitory concentration (FIC) index.
(§7) 1 strain of drug-resistant Escherichia coli II, namely drug-resistant Escherichia coli 1864, is provided by the School of Pharmacy of Fudan University. This strain is resistant to fluoroquinolone antibiotics (such as levofloxacin), non-fluoroquinolone antibiotics (such as nalidixic acid, nemofloxacin), aminoglycoside antibiotics (such as gentamicin), glycopeptide antibiotics (such as vancomycin) and carbapenem antibiotics (such as meropenem).
as §1, with “A” for “1”
as §2, with “Compound A” for “Compound 1”
as §3
According to the method in Example 1, a drug sensitive plate was prepared with working solution I and working solution II, and the specific process will not be repeated here.
as §4, §5, §6
(1) The experimental results were determined according to the standard of CLSI 2019 M100 29th edition.
wherein: FIC≤0.5 indicates synergistic effect; 0.5<FIC≤1.0 indicates additive effect; 1<FIC≤2.0 indicates irrelevant effect; and FIC>2 indicates antagonistic effect.

[3] = system: drug-resistant Escherichia coli 1864; experiment: MIC of antibiotics against drug-resistant Escherichia coli II (resistance profile of the strain); details: drug-resistant Escherichia coli 1864; read-out: MIC
Text: as §7

[4] = strain 18-J11-001, compound 1 + meropenem
[5] = strain 18-J11-002, compound 1 + meropenem
[6] = strain 18-J11-034, compound 1 + meropenem
[7] = strain 18-J11-097, compound 1 + meropenem
[8] = strain 18-J15-030, compound 1 + meropenem
[9] = strain 18-J21-095, compound 1 + meropenem
[10] = strain 18-J24-015, compound 1 + meropenem
[11] = strain 18-J40-021, compound 1 + meropenem
[12] = strain 18-J51-052, compound 1 + meropenem

MIC ([1]; strain 18-J11-001, read-out: Compound 1 MIC alone): 8 µg/mL | MIC ([1]; strain 18-J11-002, read-out: Compound 1 MIC alone): 4 µg/mL | MIC ([1]; strain 18-J11-034, read-out: Compound 1 MIC alone): 4 µg/mL | MIC ([1]; strain 18-J11-097, read-out: Compound 1 MIC alone): 8 µg/mL | MIC ([1]; strain 18-J15-030, read-out: Compound 1 MIC alone): 16 µg/mL | MIC ([1]; strain 18-J21-095, read-out: Compound 1 MIC alone): 8 µg/mL | MIC ([1]; strain 18-J24-015, read-out: Compound 1 MIC alone): 8 µg/mL | MIC ([1]; strain 18-J40-021, read-out: Compound 1 MIC alone): 8 µg/mL | MIC ([1]; strain 18-J51-052, read-out: Compound 1 MIC alone): 4 µg/mL | change of the MIC of meropenem by the combination ([1]; compound 1 + meropenem): significantly reduce | Compound 1 MIC in combination ([1]; strain 18-J11-001): 4 µg/mL | Compound 1 MIC in combination ([1]; strain 18-J11-002): 2 µg/mL | Compound 1 MIC in combination ([1]; strain 18-J11-034): 2 µg/mL | Compound 1 MIC in combination ([1]; strain 18-J11-097): 4 µg/mL | Compound 1 MIC in combination ([1]; strain 18-J15-030): 8 µg/mL | Compound 1 MIC in combination ([1]; strain 18-J21-095): 4 µg/mL | Compound 1 MIC in combination ([1]; strain 18-J24-015): 2 µg/mL | Compound 1 MIC in combination ([1]; strain 18-J40-021): 4 µg/mL | Compound 1 MIC in combination ([1]; strain 18-J51-052): 2 µg/mL
SMILES: O=[N+]([O-])c1c(Br)c(Cl)c2cccnc2c1O [Compound 1, 6-bromo-5-chloro-7-nitroquinolin-8-ol]
effect of the combination (summary of Table 1) ([1]; compound 1 + meropenem, strains resistant to carbapenem antibiotics): additive effect (0.5<FIC≤1.0 indicates additive effect) | FIC index [1, 4]: 0.750 | Results [1, 4]: Additive | FIC index [1, 5]: 0.750 | Results [1, 5]: Additive | FIC index [1, 6]: 0.750 | Results [1, 6]: Additive | FIC index [1, 7]: 0.750 | Results [1, 7]: Additive | FIC index [1, 8]: 0.625 | Results [1, 8]: Additive | FIC index [1, 9]: 0.750 | Results [1, 9]: Additive | FIC index [1, 10]: 0.750 | Results [1, 10]: Additive | FIC index [1, 11]: 0.750 | Results [1, 11]: Additive | FIC index [1, 12]: 0.625 | Results [1, 12]: Additive

MIC ([1]; strain 18-J11-001, read-out: Meropenem MIC alone): 32 µg/mL | MIC ([1]; strain 18-J11-002, read-out: Meropenem MIC alone): 64 µg/mL | MIC ([1]; strain 18-J11-034, read-out: Meropenem MIC alone): 64 µg/mL | MIC ([1]; strain 18-J11-097, read-out: Meropenem MIC alone): 64 µg/mL | MIC ([1]; strain 18-J15-030, read-out: Meropenem MIC alone): 64 µg/mL | MIC ([1]; strain 18-J21-095, read-out: Meropenem MIC alone): 64 µg/mL | MIC ([1]; strain 18-J24-015, read-out: Meropenem MIC alone): 64 µg/mL | MIC ([1]; strain 18-J40-021, read-out: Meropenem MIC alone): 64 µg/mL | MIC ([1]; strain 18-J51-052, read-out: Meropenem MIC alone): 32 µg/mL | Meropenem MIC in combination ([1]; strain 18-J11-001): 8 µg/mL | Meropenem MIC in combination ([1]; strain 18-J11-002): 16 µg/mL | Meropenem MIC in combination ([1]; strain 18-J11-034): 16 µg/mL | Meropenem MIC in combination ([1]; strain 18-J11-097): 16 µg/mL | Meropenem MIC in combination ([1]; strain 18-J15-030): 8 µg/mL | Meropenem MIC in combination ([1]; strain 18-J21-095): 16 µg/mL | Meropenem MIC in combination ([1]; strain 18-J24-015): 32 µg/mL | Meropenem MIC in combination ([1]; strain 18-J40-021): 16 µg/mL | Meropenem MIC in combination ([1]; strain 18-J51-052): 4 µg/mL | MIC ([2]; Escherichia coli, read-out: Meropenem MIC alone): 128 µg/mL | Meropenem MIC in combination ([2]; with compound A): 2 µg/mL | MIC [3]: > 64 µg/mL
SMILES: C[C@@H](O)[C@H]1C(=O)N2C(C(=O)O)=C(S[C@@H]3CN[C@H](C(=O)N(C)C)C3)[C@H](C)[C@H]12 [Meropenem, reference compound]
